In patent US10272133B2, “Compositions and methods for treating and preventing hyperlipidemia, fatty liver, atherosclerosis and other disorders associated with metabolic syndrome” (VANDERBILT UNIVERSITY, priority 2011, dated 2019):
Values after ≈ are worked out from the molar mass of the structure shown. Where two headings read alike, the source gives them in different places. One block for each compound: values may come before it. Bridge positions count the residues as written; N and C are the ends. Ends that are not written are not given here. Peptide text beside a SMILES is read from it.

Legend:
[1] = system: importins alpha 1, 4, and 5; test: Importins pull-down assay, Jurkat T cell extract; format: binding, human; conditions: biotinylated peptide, Jurkat T cell lysate pull-down
Experimental: (§1) Cell-penetrating peptide cSN50.1 (2986 Da) and other peptides listed in Table 1 were synthesized and prepared as previously described (Liu, D., et al., (2009) Mol Ther 17, 796-802). Biotinylated NTM peptides and their constituent modules were prepared in the same manner, with biotin added to the amino terminus at the last step of synthesis. When necessary, a 5-7 hydrophilic amino acid tag was added to peptide modules to facilitate solubility. For i.p. administration, 200 μl aliquots containing 0.4 or 0.7 mg of cSN50.1 in saline was injected at 8 h or 12 h intervals. Alternatively, 10 mg cSN50.1 in 100 μl sterile H2O was administered subcutaneously from ALZET Osmotic Pumps (1007D) placed aseptically in interscapular areas. A bolus of 0.7 mg cSN50.1 in 100 μl saline was administered i.p. at weekly pump changes to assure steady NTM bioavailability. Dosage schedules were developed based on previous experimental protocols and half-life studies. Control mice received sterile saline in the same volumes as NTM. Importins pull-down assay. Ten nmols of biotinylated NTM peptides or their constituent modules depicted in Table 1 (SN50, cSN50.1, N50, cN50.1, SSHR-1, SSHR-2) were incubated overnight at 4° C. with 1.5 mg of whole cell extract from unstimulated human Jurkat T cells or serum-starved human HepG2 cells lysed in binding buffer (10 mM HEPES at pH 7.9, 150 mM NaCl, 10 mM KCl, 2.5 mM MgCl2, 1 mM EGTA, 1 mM DTT, 0.1% NP-40, 1% protease inhibitor cocktail). Lysate was cleared by centrifugation (16,000×g for 30 min at 4° C.) and transferred to a fresh tube containing high capacity Neutravidin beads (Thermo Scientific). After 4 h, beads were separated from lysate/peptide mixture by centrifugation (30 s at 1,000×g) and washed 3 times with binding buffer and 2 times with PBS. Beads were boiled for 10 min in SDS loading buffer, and protein content was analyzed by immunoblotting with a panel of anti-importins alpha and beta antibodies and anti-GAPDH (Abcam) as a cellular protein control.

importin beta [2] = biological target: T1, importin beta (Homo sapiens, UniProt Q14974); test: Importins pull-down assay, Jurkat T cell extract; format: binding; set-up: whole cell extract from unstimulated human Jurkat T cells; endogenous in cells; host or cells: human Jurkat T cells, whole-cell extract; conditions: biotinylated peptide, Jurkat T cell lysate pull-down
Experimental: as §1

[3] = system: ldlr−/− mice fed a Western diet; test: Hyperlipidemia, fatty liver, hyperglycemia and weight gain in ldlr-/- mice fed a Western diet; format: in vivo, mouse
Experimental: (§2) Cell-penetrating peptide cSN50.1 (2986 Da) and other peptides listed in Table 1 were synthesized and prepared as previously described (Liu, D., et al., (2009) Mol Ther 17, 796-802). Biotinylated NTM peptides and their constituent modules were prepared in the same manner, with biotin added to the amino terminus at the last step of synthesis. When necessary, a 5-7 hydrophilic amino acid tag was added to peptide modules to facilitate solubility. For i.p. administration, 200 μl aliquots containing 0.4 or 0.7 mg of cSN50.1 in saline was injected at 8 h or 12 h intervals. Alternatively, 10 mg cSN50.1 in 100 μl sterile H2O was administered subcutaneously from ALZET Osmotic Pumps (1007D) placed aseptically in interscapular areas. A bolus of 0.7 mg cSN50.1 in 100 μl saline was administered i.p. at weekly pump changes to assure steady NTM bioavailability. Dosage schedules were developed based on previous experimental protocols and half-life studies. Control mice received sterile saline in the same volumes as NTM. Importins pull-down assay. […] Beads were boiled for 10 min in SDS loading buffer, and protein content was analyzed by immunoblotting with a panel of anti-importins alpha and beta antibodies and anti-GAPDH (Abcam) as a cellular protein control.
Six week old B6.129S7-Ldlrtm1Her/J female mice were purchased from Jackson Laboratories. […] Blood chemistries were determined in fasting mouse plasma using an automated chemistry analyzer in the Vanderbilt Clinical Research Center. Total cholesterol and triglycerides in liver and cholesterol in feces were analyzed by standard methods in the Lipid Core Laboratory. […] Cryostat sections of livers were stained with Oil-red-O. Atherosclerotic lesions and macrophages were analyzed in the aortic root by staining with Oil-red-O and MOMA-2, respectively. Average lesion area was determined using Imaging System KS300 2.0.

ldlr−/− mice = test: General safety in ldlr-/- mice (blood cells, blood chemistries, infection); format: in vivo, mouse
Experimental: Six week old B6.129S7-Ldlrtm1Her/J female mice were purchased from Jackson Laboratories. Mice were fed a Western diet containing 21% milk fat and 0.15% cholesterol and maintained according to the guidelines for use and care of laboratory animals approved by the Vanderbilt University Institutional Animal Care and Use Committee. Mice and food were weighed at the beginning and end of each experiment. Blood chemistries were determined in fasting mouse plasma using an automated chemistry analyzer in the Vanderbilt Clinical Research Center. Total cholesterol and triglycerides in liver and cholesterol in feces were analyzed by standard methods in the Lipid Core Laboratory. Complete blood cell counts were performed in the Clinical Hematology Laboratory and flow cytometry analysis of lymphocytes subsets was. Cryostat sections of livers were stained with Oil-red-O. Atherosclerotic lesions and macrophages were analyzed in the aortic root by staining with Oil-red-O and MOMA-2, respectively. Average lesion area was determined using Imaging System KS300 2.0.

Solubility of peptides = format: physicochemical
GAPDH [4] = biological target: T2, GAPDH (Homo sapiens, UniProt P04406); test: Importins pull-down assay, Jurkat T cell extract, control protein; format: binding; set-up: endogenous in cells; conditions: biotinylated peptide, Jurkat T cell lysate pull-down
Experimental: as §2

importin beta [5] = biological target: T1, importin beta; test: Importins pull-down assay, HepG2 cell extract; format: binding; set-up: endogenous in cells; conditions: HepG2 cell extracts
Experimental: as §2, with “control. […]” for “control.”

GAPDH [6] = biological target: T2, GAPDH; test: Importins pull-down assay, HepG2 cell extract, control protein; format: binding; set-up: endogenous in cells; host or cells: human hepatoma HepG2 cells, starved overnight in 1% FBS, whole-cell extract; conditions: HepG2 cell extracts
Experimental: as §2, with “control. […]” for “control.”

importin beta [7] = biological target: T1, importin beta; test: Nuclear Transport Modifier/importin beta competition binding assay; set-up: whole cell extract from unstimulated human Jurkat T cells; endogenous in cells; host or cells: human Jurkat T cells, whole-cell extract; conditions: free non-biotinylated peptide 0-300 μM, Jurkat T cell extract
Experimental: Non-biotinylated SN50 peptide (at 0, 10, 30, 100 or 300 μM concentrations) was incubated overnight with 1 mg of human Jurkat T cell whole-cell extract at 4° C. Simultaneously, biotinylated SN50 peptide (10 nmols) was immobilized on high capacity Neutravidin beads at 4° C. overnight, then washed 3 times with PBS and 1 time with binding buffer to remove unbound biotinylated SN50. Binding mixture was precleared by centrifugation (16,000×g for 30 min at 4° C.) and transferred to a fresh tube containing washed high capacity Neutravidin beads complexed with immobilized biotinylated SN50 peptide. Immunoblot analysis of importin beta bound to beads was performed as described in the importins pull-down assay.

T1 sequence (Q14974 whole entry): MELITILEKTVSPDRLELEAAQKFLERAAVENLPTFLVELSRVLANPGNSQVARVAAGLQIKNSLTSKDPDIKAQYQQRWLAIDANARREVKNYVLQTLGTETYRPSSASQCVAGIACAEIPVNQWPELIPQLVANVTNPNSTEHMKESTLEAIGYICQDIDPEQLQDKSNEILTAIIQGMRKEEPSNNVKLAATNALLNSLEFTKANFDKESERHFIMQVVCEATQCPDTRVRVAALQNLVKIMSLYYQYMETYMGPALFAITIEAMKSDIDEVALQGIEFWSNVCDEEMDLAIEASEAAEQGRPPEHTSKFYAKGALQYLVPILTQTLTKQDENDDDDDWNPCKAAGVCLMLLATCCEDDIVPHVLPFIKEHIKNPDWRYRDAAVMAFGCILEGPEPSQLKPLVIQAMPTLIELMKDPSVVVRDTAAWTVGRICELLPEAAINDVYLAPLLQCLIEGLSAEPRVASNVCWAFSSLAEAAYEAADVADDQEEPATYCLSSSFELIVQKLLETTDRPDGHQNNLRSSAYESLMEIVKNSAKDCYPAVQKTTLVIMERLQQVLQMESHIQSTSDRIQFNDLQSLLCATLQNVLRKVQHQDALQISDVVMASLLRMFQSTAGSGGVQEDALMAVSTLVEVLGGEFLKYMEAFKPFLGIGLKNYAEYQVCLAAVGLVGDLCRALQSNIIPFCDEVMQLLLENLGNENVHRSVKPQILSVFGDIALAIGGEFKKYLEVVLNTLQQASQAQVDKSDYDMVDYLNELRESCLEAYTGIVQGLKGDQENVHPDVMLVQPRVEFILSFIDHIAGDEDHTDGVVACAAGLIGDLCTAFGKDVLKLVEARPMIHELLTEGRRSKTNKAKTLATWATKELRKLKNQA
T2 sequence (P04406 whole entry): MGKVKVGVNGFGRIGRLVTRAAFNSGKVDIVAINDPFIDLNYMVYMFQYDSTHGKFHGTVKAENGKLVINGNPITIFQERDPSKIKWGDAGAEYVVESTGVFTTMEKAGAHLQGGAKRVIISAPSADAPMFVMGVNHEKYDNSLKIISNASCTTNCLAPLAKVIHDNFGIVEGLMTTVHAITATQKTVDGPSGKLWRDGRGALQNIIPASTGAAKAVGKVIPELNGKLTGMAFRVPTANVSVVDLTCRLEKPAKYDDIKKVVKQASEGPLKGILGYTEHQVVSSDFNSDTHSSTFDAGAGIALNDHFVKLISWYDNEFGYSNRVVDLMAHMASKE

Compound: VQRKRQKLMP (HOMO SAPIENS) [N50]
interaction with importins alpha 1, 4, and 5 [1]: maintain reactivity
interaction with importin beta (importin beta [2]): did not react

Compound: AAVALLPAVLLALLAPCVQRDEQKLMPC (disulfide 17-28 (inferred)) [cSN50.1 Beta]
interaction with importins alpha 1, 4, and 5 [1]: did not react

Compound: CSCC[C@@H]1NC(=O)[C@H](CC(C)C)NC(=O)[C@H](CCCCN)NC(=O)[C@H](CCC(N)=O)NC(=O)[C@H](CCCNC(=N)N)NC(=O)[C@H](CCCCN)NC(=O)[C@H](CCCNC(=N)N)NC(=O)[C@H](CCC(N)=O)NC(=O)[C@H](C(C)C)NC(=O)[C@@H](NC(=O)[C@@H]2CCCN2C(=O)[C@H](C)NC(=O)[C@H](CC(C)C)NC(=O)[C@H](CC(C)C)NC(=O)[C@H](C)NC(=O)[C@H](CC(C)C)NC(=O)[C@H](CC(C)C)NC(=O)[C@@H](NC(=O)[C@H](C)NC(=O)[C@@H]2CCCN2C(=O)[C@H](CC(C)C)NC(=O)[C@H](CC(C)C)NC(=O)[C@H](C)NC(=O)[C@@H](NC(=O)[C@H](C)NC(=O)[C@H](C)N)C(C)C)C(C)C)CSSC[C@@H](C(=O)O)NC(=O)[C@@H]2CCCN2C1=O [cSN50.1] (H-AAVALLPAVLLALLAPCVQRKRQKLMPC-OH; disulfide 17-28; N-terminus and C-terminus assumed)
signs of infection or illness (ldlr−/− mice; 8 weeks of treatment): no overt signs of infection or illness
blood cell populations and blood chemistries (ldlr−/− mice; mouse, in vivo): did not reveal any significant changes
general susceptibility to environmental pathogens (ldlr−/− mice; mouse, in vivo): did not cause any apparent signs
solubility (Solubility of peptides; read-out: solubility): 100 mg/mL (≈ 33.5 mM)

The next lines start with results.

interaction with importin beta (importin beta [2]): did not react
Compound: CVQRKRQKLMPC (disulfide 1-12 (inferred)) [cN50.1]
interaction with importins alpha 1, 4, and 5 [1]: maintain reactivity
liver alanine and aspartate transaminases (ALT and AST) in plasma ([3]; 8 weeks): elevated levels
results vs mice given saline ([3]; control peptide, plasma cholesterol and triglycerides): not different
experimental endpoints (hypercholesterolemia) vs saline alone ([3]; non-cell penetrating control peptide in saline): did not differ significantly

interaction with importin beta (importin beta [2]): importin beta-binding function
Compound: AVLLALLAP (HOMO SAPIENS) [SSHR-2]

interaction with importin beta (importin beta [5]): interacted
interaction with control protein GAPDH (GAPDH [6]): not with the control protein GAPDH
interaction with importin beta (importin beta [2]): interacted
inhibition of biotinylated SN50 binding to importin beta (importin beta [7]): competitively inhibited
Compound: AAVALLPAVLLALLAPVQRKRQKLMP [SN50]
interaction with importins alpha 1, 4, and 5 [1]: interacted
interaction with control cytoplasmic marker protein GAPDH (GAPDH [4]): not with the control cytoplasmic marker protein GAPDH

solubility (Solubility of peptides; depending on the method of synthesis and purification, read-out: soluble at levels): 2 to 40 mg/mL (≈ 0.635 to 12.7 mM)
Compound: CSCC[C@@H]1NC(=O)[C@H](CC(C)C)NC(=O)[C@H](CCCCN)NC(=O)[C@H](CCC(N)=O)NC(=O)[C@H](CCCNC(=N)N)NC(=O)[C@H](CCCCN)NC(=O)[C@H](CCCNC(=N)N)NC(=O)[C@H](CCC(N)=O)NC(=O)[C@H](C(C)C)NC(=O)[C@H](Cc2ccc(O)cc2)NC(=O)[C@@H](NC(=O)[C@@H]2CCCN2C(=O)[C@H](C)NC(=O)[C@H](CC(C)C)NC(=O)[C@H](CC(C)C)NC(=O)[C@H](C)NC(=O)[C@H](CC(C)C)NC(=O)[C@H](CC(C)C)NC(=O)[C@@H](NC(=O)[C@H](C)NC(=O)[C@@H]2CCCN2C(=O)[C@H](CC(C)C)NC(=O)[C@H](CC(C)C)NC(=O)[C@H](C)NC(=O)[C@@H](NC(=O)[C@H](C)NC(=O)[C@H](C)N)C(C)C)C(C)C)CSSC[C@@H](C(=O)O)NC(=O)[C@@H]2CCCN2C1=O [cSN50] (H-AAVALLPAVLLALLAPCYVQRKRQKLMPC-OH; disulfide 17-29; N-terminus and C-terminus assumed)
